Key:
Format in all cases: functional
Escherichia coli [1] = experiment: Antibacterial activity against Escherichia coli W3110
Escherichia coli [2] = experiment: Antibacterial activity against Escherichia coli pTMV19
Escherichia coli [3] = experiment: Antibacterial activity against Escherichia coli pTMV19 in presence of mevalonate

SMILES	inhibition zone (IZ) (Escherichia coli [1]) [mm]	inhibition zone (IZ) (Escherichia coli [2]) [mm]	inhibition zone (IZ) (Escherichia coli [3]) [mm]
CC(NC(P(=O)(O)O)P(=O)(O)O)c1cccc2ccccc12 (configuration not stated)	0	0	0
O=P(O)(O)C(N1CCSCC1)P(=O)(O)O [THIOMORPHOLINOMETHYLENEDIPHOSPHONIC ACID]	0		
O=P(O)(O)C(=Nc1cccnc1)P(=O)(O)O	0		
Cc1cccnc1NCC(P(=O)(O)O)S(=O)(=O)O (configuration not stated)	0		
O=P(O)(O)C(CNc1cccnc1)P(=O)(O)O	0		
CCCCCCCCCCCCCC(O)(P(=O)(O)O)P(=O)(O)O	0		
CCCN(CCC)C(P(=O)(O)O)P(=O)(O)O [(DIPROPYLAMINO)METHYLENEDIPHOSPHONIC ACID]	0		
NC[C@H]1O[C@H](O[C@H]2[C@H](O)[C@@H](O[C@H]3O[C@H](CO)[C@@H](O)[C@H](N)[C@H]3O)[C@H](N)C[C@@H]2N)[C@H](O)[C@@H](O)[C@@H]1O [KANAMYCIN]	21	22	17
Cc1cc(C)nc(NC(P(=O)(O)O)P(=O)(O)O)c1	11	7	0
O=P(O)(O)C(NC1CCCCC1)P(=O)(O)O [(CYCLOHEXYLAMINO)METHYLENEDIPHOSPHONIC ACID]	7	8	9
CCC(C)NC(P(=O)(O)O)P(=O)(O)O (configuration not stated)	0		
CCCNC(P(=O)(O)O)P(=O)(O)O [(PROPYLAMINO)METHYLENEDIPHOSPHONIC ACID]	0		
CC1CCCCN1C(P(=O)(O)O)P(=O)(O)O (configuration not stated)	0		
NC[C@@H]1O[C@H](O[C@H]2[C@@H](O)[C@H](O[C@@H]3[C@@H](O)[C@H](N)C[C@H](N)[C@H]3O[C@H]3O[C@H](CN)[C@@H](O)[C@H](O)[C@H]3N)O[C@@H]2CO)[C@H](N)[C@@H](O)[C@@H]1O [FRAMYCETIN]	15	18	12
CCCCNC(P(=O)(O)O)P(=O)(O)O [(BUTYLAMINO)METHYLENEDIPHOSPHONIC ACID]	0		
CCCCCCCCC(O)(P(=O)(O)O)P(=O)(O)O	9	7	0
O=P(O)(O)C(O)(Cc1cn2ccccc2n1)P(=O)(O)O	0		
O=P(O)(O)C(O)(Cc1cccc(F)c1)P(=O)(O)O	0		
CC1CCN(C(P(=O)(O)O)P(=O)(O)O)CC1	0		
CC1CC(C)CN(C(P(=O)(O)O)P(=O)(O)O)C1 (configuration not stated)	0		
CCC(C)CNC(P(=O)(O)O)P(=O)(O)O (configuration not stated)	0		
CCCCCCc1ccc(NC(P(=O)(O)O)P(=O)(O)O)cc1	0	0	0

SMILES	inhibition zone (IZ) (Escherichia coli [1]) [mm]	inhibition zone (IZ) (Escherichia coli [2]) [mm]	inhibition zone (IZ) (Escherichia coli [3]) [mm]
CCCCCCCCCCCCCCCC(O)(P(=O)(O)O)P(=O)(O)O	0		
O=P(O)(O)C(Nc1ncccc1COc1ccccc1)P(=O)(O)O	0		
CC(C)(C)c1cc(NC(P(=O)(O)O)P(=O)(O)O)cc(C(C)(C)C)c1	0		
Cc1cccc(NC(P(=O)(O)O)P(=O)(O)O)n1	7	10	8
CCn1c2ccccc2c2cc(NC(P(=O)(O)O)P(=O)(O)O)ccc21	0	0	0
CCCCCCCCCC(O)(P(=O)(O)O)P(=O)(O)O	9	0	0
Cc1cccc(CC(O)(P(=O)(O)O)P(=O)(O)O)c1	0	0	0
O=P(O)(O)C(Nc1cccc(Oc2ccccc2)c1)P(=O)(O)O	0		
CCc1cccc(NC(P(=O)(O)O)P(=O)(O)O)c1	0		
O=P(O)(O)C(Nc1ccc2c(c1)CCC2)P(=O)(O)O	0		
O=P(O)(O)C(Nc1ccc(Br)cn1)P(=O)(O)O	12	11	8
CCCCCN(C)CCC(O)(P(=O)(O)O)P(=O)(O)O [IBANDRONIC ACID]	0		
CN(CCOc1ccccc1)CCC(O)(P(=O)(O)O)P(=O)(O)O	11	15	11
O=P(O)(O)C(Nc1cc(Cl)cc(Cl)c1)P(=O)(O)O [(3,5-DICHLOROPHENYLAMINO)METHYLENEDIPHOSPHONIC ACID]	0	10	8
CC(C)CCNC(P(=O)(O)O)P(=O)(O)O [(ISOPENTYLAMINO)METHYLENEDIPHOSPHONIC ACID]	0		
O=P(O)(O)C(N1CCCCCCC1)P(=O)(O)O [N-(HEPTAMETHYLENEIMINO)METHYLENEBISPHOSPHONIC ACID]	0		
O.O=P(O)(O)C(O)(Cn1ccnc1)P(=O)(O)O [ZOLEDRONIC ACID]	0		
O=P(O)(O)C(O)(Cc1cccc(C(F)(F)F)c1)P(=O)(O)O	7	7	0
CC(C)c1cccc(C(C)C)c1NC(P(=O)(O)O)P(=O)(O)O	0		
Cc1cc(Br)cnc1NC(P(=O)(O)O)P(=O)(O)O	0	0	0
O=P(O)(O)C(Sc1ccccn1)P(=O)(O)O	0	0	0
